Experiments:
Sprague Dawley rats = type: in vivo
Method: Taxol™ commonly causes dose dependent peripheral neuropathies during cancer treatment. […] All of the Taxol™ treated animals developed peripheral neuropathies, characterized by ‘tip toe walking’. The extent of this neuropathy was analyzed by quantifying the refracted light captured by a video camera as the animals walked over a glass plate.
Adult Sprague Dawley rats were treated with Taxol™ (IP, 9 mg/kg in Cremophor EL and ethanol) twice weekly for 3 weeks (J. Neuro-Oncology (1999) 41: 107-116). Compound was administered I hour prior to Taxol™ treatment (IP, 1, 5 and 10 mg/kg in hydroxypropyl-β-cyclodextrin). Taxol™ treated control animals were treated with saline solution at the same time of Compound treated animals. Non-treated control animals were treated with saline solution as above. Weight gain was measured every second day, starting at Day 1. Gait analysis was measured by quantifying the refracted light captured by a video camera as the animals walked over a glass plate, 2 days after the final Taxol™ treatment (Physiology and Behavior (1994), 55(4): 723-726; Med. Sci. Res. (1988) 16: 901-902). […] H/M wave recovery was analyzed using standard procedures 2 days after the final Taxol™ treatment (Muscle Nerve (1998) 21: 1405-1413; Annals of Neurology (1998) 43 (1): 46-55).
Male Spraugue Dawley rats were treated with 50% HPDC vehicle (veh/veh), compound I dissolved in 50% HPDC at 1, 5, or 10 mg/kg (veh/1, veh/5, veh/10, respectively), or Taxol™ (9 mg/kg)+compound 1 dissolved in 50% HPDC at 1, 5, and 10 mg/kg (Tax/1, Tax/5, Tax/10) according to the dosing regime described in Example 160. Weight measurements were made ever other day.
Two days after the completion of drug treatments animal walking gait was analyzed according to a) total imprint area, and b) total number of contact points.
FIG. 6 illustrates the effect of Compound 1 on H-reflex amplitude, a measurement of H/M wave disturbance induced by Taxol™. Two days after the completion of drug treatments, the dorsal root ganglia and attached nerves were dissected bilaterally from L4 and L5 and their H/M wave conductance measured.

Akt = Akt activity in PC12 cells and SCGs; type: cell-based
Text: (§1) Additionally, the Erks protect cultured neurons from a number of insults including neurotrophin withdrawal (Bonni, A., et al., Science, 1999, 286, 1358-1362). […] Compound 1, therefore, protects neurons by activating a subset of NGF-stimulated signaling pathways.

Erk = Erk activity in PC12 cells and sympathetic neurons; type: cell-based; details: PC12 cells and primary cultures of sympathetic neurons
Text: as §1

[1] = 5 mg/kg with Taxol™ (9 mg/kg), bi-weekly

**Q.** What does the source list for NS(=O)(=O)c1nn2cc(-c3ccccc3)nc2s1 [Compound 1, 6-Phenylimidazo[2,1-b]-1,3,4-thiadiazole-2-sulfonamide]?
**A.** loss in foot pad contact (Sprague Dawley rats; [1]): 23%; weight gain as compared to control (Sprague Dawley rats; [1]): normal weight gain; H/M wave disturbance induced by Taxol™ (H-reflex amplitude) (Sprague Dawley rats; two days after completion of drug treatments): caused a reversal in H/M wave disturbance; Taxol™ induced gait disturbance (Sprague Dawley rats; two days after completion of drug treatments, total imprint area, number of contact points): prevented Taxol™ induced gait disturbance; activity of Akt (Akt): remained unchanged; Erk activity (Erk): dramatic increase
